Laboratory results published in patent publication US6566337B1, “Compounds with growth hormone releasing properties” (Novo Nordisk A/S, priority 1998, dated 2003).
Square brackets hold non-standard residues; d marks the D form. Peptide text beside a SMILES is read from it. d2Nal = N[C@H](Cc1ccc2ccccc2c1)C(=O)O

What was measured:
[1] = Pharmacokinetics in fasted Beagle dogs; type: in vivo; conditions: dog, plasma; for half-life: in 5% glucose solution, non-compartmental, read-out: Plasma half-life T½ (converted); for bioavailability: intravenous and oral administration in 5% glucose solution, read-out: Oral bioavailability Fpo
Protocol: The pharmakokinetic data were obtained by following procedure:
The pharmacokinetics of the test compounds were investigated in fasted Beagle dogs.
Intravenous and oral administration of the test compound, in 5% glucose solution, was separated by a one weeks washout.
Blood samples were collected immediately before drug administration (time zero) and than 0.08, 0.25, 0.50, 0.75, 1.0, 1.5, 2.0, 3.0, 4.0, 5.0, and 6.0 hours after administration.
The plasma samples were stored frozen (<−18° C.) pending analysis.
An HPLC method with solid phase extraction and UV detection was used for the quantification of the compound in plasma.
The pharmacokinetic parameters for compounds were calculated by non-compartmental methods using the PC based pharmacokinetic software WinNonlin, version 1.1 (Scientific Consulting Inc., Apex, N.C., USA).

carboxypeptidase Y and B = assay: Metabolic stability in carboxypeptidase mix (ESMS, SIM signal); conditions: carboxypeptidase Y and B in 50 mM ammoniumacetate pH 4.5, 37° C., 24 h, decrease in SIM signal
Protocol: (§1) Compounds is dissolved at a concentration of 1 mg/ml in water. 25 ml of this solution is added to 175 ml of the respective enzyme-solution (resulting in an enzyme:substrate ratio (w/w) of approximately 1:5). The solution is left at 37° C. overnight. 10 ml of the various degradation solutions is analyzed against a corresponding zero-sample using flow injection electrospray mass spectrometry (ESMS) with selected ion monitoring of the molecular ion. If the signal has decreased more than 20% compared to the zero-sample, the remainder of the solution is analyzed by HPLC and mass spectrometry in order to identify the extent and site(s) of degradation precisely.
Carboxypeptidase mix: carboxypeptidase Y and B in 50 mM ammoniumacetate pH 4.5 (all concentrations 0.025 mg/ml).
(§2) Mass spectrometric analysis was performed using two different mass spectrometers. A Sciex API III triple quadrupole LC-MS instrument (Sciex instruments, Thornhill, Ontario) equipped with an electrospray ion-source and a Bio-Ion 20 time-of-flight Plasma Desorption instrument (Bio-Ion Nordic AB, Uppsala, Sweden).
(§3) Quantification of the compounds (before and after degradation) was done on the API III instrument using single ion monitoring of the molecular ion in question with flow injection of the analyte. […]

[2] = tested on: trypsin, chymotrypsin and elastase; assay: Metabolic stability in pancreatic enzyme mix (ESMS, SIM signal); conditions: chymotrypsin and elastase in 100 mM ammoniumbicarbonate pH 8.0, 37° C., 24 h, decrease in SIM signal
Protocol: as §1
Pancreatic enzyme mix: trypsin, chymotrypsin and elastase in 100 mM ammoniumbicarbonate pH 8.0 (all concentrations 0.025 mg/ml).
as §2, §3

| half-life [1] [h] | bioavailability [1] [%] | SMILES | Carboxy-peptidase mix (stability) (carboxypeptidase Y and B) | Pan. enzyme mix (stability) [2] |
| --- | --- | --- | --- | --- |
| 2 | 34 | CN(CCc1ccccn1)C(=O)[C@@H](Cc1ccccc1)N(C)C(=O)[C@@H](Cc1ccc2ccccc2c1)N(C)C(=O)/C=C/CC(C)(C)N [Example 1, (2E)-5-Amino-5-methylhex-2-enoic acid N-methyl-N-[(1R)-1-(N-methyl-N-{(1R)-1-[N-methyl-N-(2-(2-pyridinyl)ethyl)carbamoyl]-2-phenylethyl}carbamoyl)-2-(2-naphthyl)ethyl]amide] |  |  |
| 3.89 | 26 | CN(C(=O)/C=C/CC(C)(C)N)[C@H](Cc1ccc2ccccc2c1)C(=O)N(C)[C@H](Cc1ccccc1)C(=O)NCCc1ccncc1 [Example 408 from WO 9723508] |  |  |
|  |  | C[C@H](NC(=O)[C@@H](Cc1ccc2ccccc2c1)NC(=O)[C@@H](C)N)C(=O)N[C@@H](Cc1c[nH]c2ccccc12)C(=O)N[C@H](Cc1ccccc1)C(=O)N[C@@H](CCCCN)C(N)=O [GHRP-2] (H-[dA][d2Nal]AW[dF]K-NH2) | − (Unstable (more than 20% decrease in SIM signal after 24 h in degradation solution)) | − (Unstable (more than 20% decrease in SIM signal after 24 h in degradation solution)) |
|  |  | C[C@H](NC(=O)[C@@H](Cc1c[nH]c2ccccc12)NC(=O)[C@@H](N)Cc1c[nH]cn1)C(=O)N[C@@H](Cc1c[nH]c2ccccc12)C(=O)N[C@H](Cc1ccccc1)C(=O)N[C@@H](CCCCN)C(N)=O [GHRP-6] (H-H[dW]AW[dF]K-NH2) | − (Unstable (more than 20% decrease in SIM signal after 24 h in degradation solution)) | − (Unstable (more than 20% decrease in SIM signal after 24 h in degradation solution)) |
